Measurements taken from patent US7205309B2, “Quinazoline derivatives” (Hoffmann-La Roche Inc., priority 2002, dated 2007).

Molecular target: T1, recombinant mouse NPY5-receptor (mNPY5) (Mus musculus, UniProt O70342)
T1 construct: The full-length cDNA encoding the mouse NPY5 (mNPY5) receptor was amplified from mouse brain cDNA; expressed in transfected cells; membranes used
T1 sequence (O70342 1-466): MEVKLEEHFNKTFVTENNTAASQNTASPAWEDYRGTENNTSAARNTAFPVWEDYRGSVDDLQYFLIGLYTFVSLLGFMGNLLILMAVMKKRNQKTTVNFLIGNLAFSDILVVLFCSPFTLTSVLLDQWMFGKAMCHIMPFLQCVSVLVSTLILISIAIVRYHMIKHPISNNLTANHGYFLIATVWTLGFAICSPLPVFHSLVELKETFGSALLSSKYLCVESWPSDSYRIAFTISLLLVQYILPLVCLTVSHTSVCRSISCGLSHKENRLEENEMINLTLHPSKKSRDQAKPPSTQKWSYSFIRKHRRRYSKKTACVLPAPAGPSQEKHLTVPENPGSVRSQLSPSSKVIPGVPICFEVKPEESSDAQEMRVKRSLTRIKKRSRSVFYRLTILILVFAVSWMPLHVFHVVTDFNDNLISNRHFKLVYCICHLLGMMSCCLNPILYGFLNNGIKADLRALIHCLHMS
Assay: Radioligand competition binding
Conditions: membranes of HEK293 cells expressing mNPY5; 100 pM [125I]labeled peptide YY; 1 h at 22° C.; read-out: NPY5-R (mouse) IC50
Source text: The full-length cDNA encoding the mouse NPY5 (mNPY5) receptor was amplified from mouse brain cDNA using specific primers, designed based on the published sequence, and Pfu DNA-Polymerase. The amplification product was subcloned into the mammalian expression vector pcDNA3 using Eco RI and XhoI restriction sites. Positive clones were sequenced and one clone, encoding the published sequence was selected for generation of stable cell clones.
Human embryonic kidney 293 (HEK293) cells were transfected with 10 μg mNPY5 DNA using the lipofectamine reagent. Two days after transfection, geneticin selection (1 mg/ml) was initiated and several stable clones were isolated. One clone was further used for pharmacological characterization.
Human embryonic kidney 293 cells (HEK293), expressing recombinant mouse NPY5-receptor (mNPY5) were broken by three freeze/thawing cycles in hypotonic Tris buffer (5 mM, pH 7.4, 1 mM MgCl2), homogenized and centrifuged at 72,000×g for 15 min. The pellet was washed twice with 75 mM Tris buffer, pH 7.4, containing 25 mM MgCl2 and 250 mM sucrose, 0.1 mM phenylmethylsulfonylfluoride and 0.1 mM 1,10-pheneanthrolin, resuspended in the same buffer and stored in aliquots at −80° C. Protein was determined according to the method of Lowry using bovine serum albumine (BSA) as a standard. […]

IC50 [nM]	Structure (SMILES)
9	Cc1nc(N2CCCC2)c2ccc(OCc3ccc(C#N)cc3)cc2n1 [Compound 3, 4-(2-methyl-4-pyrrolidin-1-yl-quinazolin-7-yloxymethyl)-benzonitrile]
3	Cc1nc(N2CCCC2)c2ccc(NCC(C)C)cc2n1 [Compound 24, isobutyl-(2-methyl-4-pyrrolidin-1-yl-quinazolin-7-yl)-amine]
